Reference: patent US20210113602A1, “USE OF 6-THIO-2'-DEOXYGUANOSINE (6-THIO-dG) TO TREAT MELANOMA” (The Board of Regents of the University of Texas System, priority 2018, published 2021)

Legend:
[1] = system: NRAS mutant melanoma cells; assay: ROS production, H2DCFDA fluorescence; assay type: cell-based, human; details: 1 μM for 7 days
Method: (§1) FIGS. 2a-h. […] (FIGS. 2a-c) NRASmut melanoma cells (FIG. 2a), BRAF-V600E/NRAS mutant cells derived from melanoma patients resistant to BRAF/MEK inhibitors (FIG. 2b), or non-transformed melanocytes and fibroblasts (FIG. 2c) were treated with 6-thio-dG for 7 days. Cell viability was measured by Alamar Blue assay and calculated relative to DMSO-treated cells. (FIG. 2d) NRASmut melanoma cells and non-transformed human fibroblasts were treated with 1 or 5 μM 6-thio-dG for 7 or 14 days. Cell death was assessed by PSVUe staining. Percent of apoptotic cells is shown. (FIG. 2e) Cells were treated with DMSO or 1 μM 6-thio-dG for 14 days and telomere length was assessed by Southern blotting of TRF. Mean TRF length expressed as kilobase pairs is indicated at the bottom. (FIGS. 2f-g) Cells were treated with 1 μM 6-thio-dG for 7 days. (FIG. 2f) ROS production was measured by H2DCFDA fluorescence and normalized to MSO treated cells. (FIG. 2g) DNA damage was assessed by γH2AX staining. Data represent average from three independent experiments±SEM. *p<0.05; **p<0.01; ***p<0.005 in unpaired Student's t-test. […] Tumor volume was measured and average tumor volume (n=4)±SEM was plotted vs. time.
Measurement of reactive oxygen species. General or mitochondrial specific ROS were measured by flow cytometry H2DCFDA or MitoSoxRed (Invitrogen, Waltham, Mass.) following manufacturer's specifications.

[2] = system: NRAS mutant melanoma cells; assay: Telomere dysfunction-induced foci (TIF) assay; assay type: cell-based, human; details: 6-thio-dG for 7 days
Method: Supplementary FIGS. 6a-b. […] NRAS mutant melanoma cells WM3000 were transduced with TERT shRNA and treated with NAC […] for 7 days. (Supplementary FIG. 6a) TIFs were assessed by indirect immunofluorescence combined with fluorescence in situ hybridization (FISH). Representative images are shown (scale bar=10 μm). (Supplementary FIG. 6b) Quantification of TIF positive cells. Cells were scored as TIF positive when three or more y-H2AS foci (green) were co-localizing with telomere foci (red). Data represent average of thirteen fields imaged +/−SD.
Supplementary FIGS. 8a-d. NRAS mutant melanoma cells are sensitive to the telomere uncapping agent 6-thio-dG. NRAS^mut melanoma cells were treated with 6-thio-dG for 6, 12 or 18 days. (Supplementary FIG. 8a) Relative cell number was assessed by Cyrstal Violet assay and calculated relative to DMSO-treated cells. […] (Supplementary FIG. 8c) NRAS^mut cells were treated with 6-thio-dG for 7 days and telomere-induced foci (TIF) were determined by indirect immunofluorescence combined with fluorescence in situ hybridization (FISH). […] (Supplementary FIG. 8d) Quantification of TIF assay. Cells were scored as TIF-positive when four or more γ-H2AX foci (green) were co-localizing with telomere foci (red). […] P values were calculated by unpaired Student's t-test.
DNA damage and telomere dysfunction assay (TIF). […] Mean fluorescence staining was quantified by flow cytometry. […]

[3] = system: NRAS mutant melanoma cells; assay: Cell death by flow cytometry (PSVue or Annexin V/PI); assay type: cell-based
Method: (FIG. 2d) NRASmut melanoma cells and non-transformed human fibroblasts were treated with 1 or 5 μM 6-thio-dG for 7 or 14 days. Cell death was assessed by PSVUe staining. Percent of apoptotic cells is shown. […] (FIGS. 2f-g) Cells were treated with 1 μM 6-thio-dG for 7 days. […] Data represent average from three independent experiments±SEM. *p<0.05; **p<0.01; ***p<0.005 in unpaired Student's t-test.
(FIG. 3f) SOD2 was silenced using shRNA. Transduced M93-047 cells were treated with DMSO or 1 μM of 6-thio-dG and cell death was assessed by Annexin V/PI straining. (FIG. 3g) M93-047 cells were transduced with a SOD2 lentiviral construct or empty vector control (pLX304). Transduced cells were treated with increasing doses (1, 2.5 and 5 μM) of 6-thio-dG for 7 days and cell death was assessed. Data represent average from three independent experiments±SEM. *p<0.05; **p<0.01; ***p<0.005 in unpaired Student's t-test.
(FIG. 4a) NRASmut melanoma cells transduced with TERT shRNA were treated 7 days post infection with 5 μM Gamitrinib (Gam) for 48 h. Cell death was assessed by Annexin V and PI staining. (FIG. 4b) NRASmut melanoma cells and non-transformed fibroblasts were treated with 1 μM 6-thio-dG for 5 days. At day 5, culture medium was replaced and cells treated with 1 μM 6-thio-dG plus 5 μM Gam for two more days. Cells were stained with Annexin V and PI and percent cell death was determined by flow cytometry. […] Data represent average of three independent experiments ±SEM. P values were calculated using unpaired Student's t-test; * p<0.05; ***p<0.005.
(Supplementary FIG. 10a) NRASmut melanoma cells were treated with 6-thio-dG (1 μ) for 7 days total. At day 5, culture medium was replaced and cells were treated with 1 μM 6-thio-dG plus 1 mM Phenformin for two more days. Percent cell death was determined by flow cytometry following staining of cells with Annexin V and Propidium iodide. Data represent average of three independent experiments +/−SEM. *p<0.05 in unpaired Student's t-test.

[4] = system: NRAS mutant melanoma cells; assay: Telomere length, Southern blotting of TRF; assay type: cell-based, human; details: 1 μM for 14 days
Method: as §1
Telomere length assay. […] The images were analyzed with Phosphorimager, visualized by Typhoon 9410 Imager (GE Healthcare), and processed with ImageQuant 5.2 software (Molecular Dynamics).

[5] = in mice; cited from earlier work
[6] = system: KRAS mutant HCT116 cells; assay: Cell death, Annexin V/PI; assay type: cell-based, human; details: 1 μM 6-thio-dG, 5 μM Gam
[7] = system: KRAS mutant A549 cells; assay: Cell death, Annexin V/PI; assay type: cell-based, human; details: 1 μM 6-thio-dG, 5 μM Gam

## Nc1nc2c(ncn2[C@H]2C[C@H](O)[C@@H](CO)O2)c(=S)[nH]1 [6-thio-dG, 6-thio-2′-deoxy-guanosine]
[1]
  ROS levels: increased levels
[2]
  TIFs: increased levels
[3]; 1 or 5 μM for 7 or 14 days, PSVue staining
  cell death: led to cell death
[3]; SOD2 lentiviral construct, 1, 2.5 and 5 μM 6-thio-dG
  apoptosis in SOD2 overexpressing cells: attenuated the apoptosis-inducing effects
[3]; SOD2 shRNA, 1 μM 6-thio-dG, M93-047, WM3000
  apoptosis in SOD2 depleted cells: enhanced the ability of 6-thio-dG to induce apoptosis
[4]
  telomere length (mean TRF): without evidence for significant telomere shortening
[5]
  alanine aminotransferase (ALT): no significant effects
  aspartate aminotransferase (AST): no significant effects
  creatinine levels: no significant effects
  red blood cells: no significant effects
  white blood cells: no significant effects
[6]
  cell death: did not induce substantial death
[7]
  cell death: did not induce substantial death
